Source: ChEMBL document CHEMBL1152426, “Synthetic strategies toward carbocyclic purine-pyrimidine hybrid nucleosides” (Bioorg Med Chem, 2009)
Calls of active or inactive are those of the source. The calls are words filed in the database; no cut-off is given here.

Experiments:
[1] = Inhibition of DNA methyltransferase
[2] = Inhibition of S-adenosylhomocystein hydrolase
[3] = Inhibition of S-adenosylhomocystein hydrolase in presence of 10 uM of S-adenosylhomocystein
[4] = Inhibition of S-adenosylhomocystein hydrolase at 45 uM in presence of S-adenosylhomocystein

Activity [1] | Activity [2] | Activity [3] | Activity [4] | Ki [2] [µM] | SMILES
inactive | inactive |  |  |  | O=c1[nH]c(=O)n([C@@H]2CC[C@@H](O)[C@H]2O)c2ncsc12
inactive |  | Active | Active | 5 | O=c1[nH]c(=O)n([C@@H]2CC[C@@H](O)[C@H]2O)c2nc[nH]c12
